Results on nine compounds are retold here after ChEMBL document CHEMBL1142291, “A novel bicyclic hexapeptide, RA-XVIII, from Rubia cordifolia: structure, semi-synthesis, and cytotoxicity” (Bioorg Med Chem Lett, 2008).

Molecules are shown by their SMILES. Values after ≈ are worked out from the molar mass of the structure shown.

This test deals with P388. Nature of the test: Cytotoxicity against mouse P388 cells. In kind it is functional, cell-based.
As a reminder, the IC50 is the concentration needed to halve the response being measured. The low end stands for greater potency in that assay, the high end for weaker potency in that assay. For `COc1ccc(C[C@H]2C(=O)N[C@@H](C)C(=O)N(C)[C@H]3Cc4ccc(cc4)Oc4cc(cc([N+](=O)[O-])c4O)C[C@@H](C(=O)N[C@H](C)C(=O)N[C@@H](C)C(=O)N2C)N(C)C3=O)cc1`, half-maximal inhibition (IC50) required 0.014 µg/mL (≈ 0.0175 µM). The value for `COc1ccc(C[C@H]2C(=O)N[C@@H](C)C(=O)N(C)[C@H]3Cc4ccc(cc4)Oc4cc(cc([N+](=O)[O-])c4OC)C[C@@H](C(=O)N[C@H](C)C(=O)N[C@@H](C)C(=O)N2C)N(C)C3=O)cc1` was 0.01 µg/mL (≈ 0.0123 µM); that for `COc1ccc(C[C@H]2C(=O)N[C@@H](C)C(=O)N(C)[C@H]3Cc4ccc(cc4)Oc4cc(c([N+](=O)[O-])cc4OC)C[C@@H](C(=O)N[C@H](C)C(=O)N[C@@H](C)C(=O)N2C)N(C)C3=O)cc1` was 0.056 µg/mL (≈ 0.0686 µM); that for `COc1ccc(C[C@H]2C(=O)N[C@@H](C)C(=O)N(C)[C@H]3Cc4ccc(cc4)Oc4cc(c(O)cc4OC)C[C@@H](C(=O)N[C@H](C)C(=O)N[C@@H](C)C(=O)N2C)N(C)C3=O)cc1` was 0.093 µg/mL (≈ 0.118 µM).

Take `COc1ccc(C[C@H]2C(=O)N[C@@H](C)C(=O)N(C)[C@H]3Cc4ccc(cc4)Oc4cc(ccc4OC)C[C@@H](C(=O)N[C@H](C)C(=O)N[C@@H](C)C(=O)N2C)N(C)C3=O)cc1`: the IC50 was 0.003 µg/mL (≈ 0.00389 µM). The value for `COc1ccc(C[C@H]2C(=O)N[C@@H](C)C(=O)N(C)[C@H]3Cc4ccc(cc4)Oc4cc(cc(O)c4OC)C[C@@H](C(=O)N[C@H](C)C(=O)N[C@@H](C)C(=O)N2C)N(C)C3=O)cc1` was 0.012 µg/mL (≈ 0.0153 µM).

Compound `COc1ccc(C[C@H]2C(=O)N[C@@H](C)C(=O)N(C)[C@H]3Cc4ccc(cc4)Oc4cc(cc(N)c4OC)C[C@@H](C(=O)N[C@H](C)C(=O)N[C@@H](C)C(=O)N2C)N(C)C3=O)cc1` showed an IC50 of 0.0071 µg/mL (≈ 0.00903 µM).

In the case of `COc1ccc(C[C@H]2C(=O)N[C@@H](C)C(=O)N(C)[C@H]3Cc4ccc(cc4)Oc4cc(c(N)cc4OC)C[C@@H](C(=O)N[C@H](C)C(=O)N[C@@H](C)C(=O)N2C)N(C)C3=O)cc1`, the 50% inhibitory concentration (IC50) was 0.7 µg/mL (≈ 0.891 µM). The result for `COc1ccc(C[C@H]2C(=O)N[C@@H](C)C(=O)N(C)[C@H]3Cc4ccc(cc4)Oc4cc(ccc4O)C[C@@H](C(=O)N[C@H](C)C(=O)N[C@@H](C)C(=O)N2C)N(C)C3=O)cc1` [DEOXYBOUVARDIN] reads 0.014 µg/mL (≈ 0.0185 µM).
